Laboratory results from patent publication US10526291B2, “Potent dual BRD4-kinase inhibitors as cancer therapeutics” (H. Lee Moffitt Cancer Center and Research Institute, Inc., priority 2014, dated 2020).
In brackets after ≈: the same amount, converted by molar mass. Several values for one entry are separate records, joined by “and”; a condition that tells them apart may be missing. Equal values may be shown once. Read-outs that look alike come from different tables or passages of the source.

Legend:
[1] = target: T1, BRD4 (Homo sapiens, UniProt O60885); experiment: Differential Scanning Fluorimetry (DSF), stability of BRD4 upon ligand binding; conditions: for ΔTm at 4 µM: 100 μM protein, 4 μM compound and 2% DMSO; for IC50: estimated
Procedure: (§1) DSF=Differential Scanning Fluorimetry; provides a measure of the increased stability of BRD4 upon ligand binding The DSF experiment was run at 100 μM protein, 4 μM compound and 2% DMSO.

[2] = tested on: MM.1S cells; experiment: MM.1S cell survival, MTT assay; type: cell-based; conditions: Homo sapiens, MM1.S, 72 h, 72 hours compound exposure
[3] = tested on: MV4-11 AML cells; experiment: MV-4-11 cell IC50 (antiproliferative activity); type: cell-based; conditions: Homo sapiens
Procedure: Cellular activity of promising compounds is assessed using MM.1S and MV4-11 AML cells using c-Myc levels as biomarker (6-12 hr treatment) and antiproliferative activity (48-72 hr treatment) as described (Ciceri et al., Dual kinase-bromodomain inhibitors for rationally designed polypharmacology. Nat Chem Biol 2014).

[4] = tested on: SAOS-2; experiment: SAOS-2 cell IC50; type: cell-based; conditions: Homo sapiens
[5] = tested on: UKE-1; experiment: UKE-1 cell IC50; type: cell-based; conditions: UKE1
[6] = tested on: NCI-H2052; experiment: NCI-H2052 cell IC50; type: cell-based; conditions: Homo sapiens
[7] = target: T2, FLT3 (Homo sapiens, UniProt P36888); experiment: FLT3 IC50 (RB, commercial kinase panel); type: biochemical
T2 construct: purchased
T2 sequence (P36888 27-993): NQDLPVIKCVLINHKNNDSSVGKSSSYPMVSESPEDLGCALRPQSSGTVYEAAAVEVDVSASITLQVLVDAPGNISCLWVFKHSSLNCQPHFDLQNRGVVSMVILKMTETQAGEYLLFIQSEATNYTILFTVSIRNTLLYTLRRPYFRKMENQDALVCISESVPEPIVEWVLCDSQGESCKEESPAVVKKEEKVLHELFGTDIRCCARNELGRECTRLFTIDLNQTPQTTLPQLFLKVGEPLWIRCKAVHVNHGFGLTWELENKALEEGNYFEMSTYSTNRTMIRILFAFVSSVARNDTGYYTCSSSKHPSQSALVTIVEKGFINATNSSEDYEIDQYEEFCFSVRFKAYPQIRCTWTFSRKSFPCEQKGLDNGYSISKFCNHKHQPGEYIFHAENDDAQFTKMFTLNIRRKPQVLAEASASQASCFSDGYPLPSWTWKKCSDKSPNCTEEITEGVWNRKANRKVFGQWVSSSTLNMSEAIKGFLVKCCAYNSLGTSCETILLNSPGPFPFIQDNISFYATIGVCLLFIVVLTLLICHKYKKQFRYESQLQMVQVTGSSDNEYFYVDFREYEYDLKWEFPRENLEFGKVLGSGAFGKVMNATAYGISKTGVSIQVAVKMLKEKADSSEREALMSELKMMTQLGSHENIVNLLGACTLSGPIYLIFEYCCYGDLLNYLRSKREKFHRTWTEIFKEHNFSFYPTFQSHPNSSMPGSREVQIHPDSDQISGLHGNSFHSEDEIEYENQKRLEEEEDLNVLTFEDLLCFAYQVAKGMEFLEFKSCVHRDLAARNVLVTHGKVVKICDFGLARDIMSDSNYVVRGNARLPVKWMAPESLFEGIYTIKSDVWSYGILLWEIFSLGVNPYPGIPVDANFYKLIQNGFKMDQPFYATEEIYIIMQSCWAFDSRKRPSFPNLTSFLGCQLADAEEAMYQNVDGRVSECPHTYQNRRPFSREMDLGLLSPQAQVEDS

[8] = target: T3, BRD4-1 (Homo sapiens, UniProt O60885); experiment: BRD4-1 IC50; type: binding
T3 construct: BRD4-1; purchased

[9] = target: T4, BRD4-2 (Homo sapiens, UniProt O60885); experiment: BRD4-2 IC50; type: binding
T4 construct: BRD4-2; purchased

[10] = target: T5, BRDT-1 (Homo sapiens, UniProt Q58F21); experiment: BRDT-1 IC50; type: binding
T5 construct: BRDT-1; purchased

[11] = Solubility in PBS buffer; type: physicochemical
[12] = target: T6, JAK2 (Homo sapiens, UniProt O60674); experiment: JAK2 IC50 (RB, commercial kinase panel); type: biochemical
T6 construct: purchased

[13] = Precipitation in DSF buffer; type: physicochemical
Procedure: as §1

[14] = tested on: HEK293; experiment: HEK293 cell IC50; type: cell-based; conditions: Homo sapiens
[15] = target: T7, BRD2 (Homo sapiens, UniProt P25440); experiment: BRD2 IC50 (RB, commercial BRD panel); type: binding
T7 construct: purchased

[16] = target: T8, BRD3 (Homo sapiens, UniProt Q15059); experiment: BRD3 IC50 (RB, commercial BRD panel); type: binding
T8 construct: purchased

[17] = target: T1, BRD4; experiment: BRD4 IC50 (RB, commercial BRD panel); type: binding
[18] = target: T9, BRDT (Homo sapiens, UniProt Q58F21); experiment: BRDT IC50 (RB, commercial BRD panel); type: binding
T9 construct: purchased

[19] = target: T10, JAK1 (Homo sapiens, UniProt P23458); experiment: JAK1 IC50 (RB, commercial kinase panel); type: biochemical
T10 construct: purchased

[20] = target: T11, JAK3 (Homo sapiens, UniProt P52333); experiment: JAK3 IC50 (RB, commercial kinase panel); type: biochemical
T11 construct: purchased
T11 sequence (P52333 1-1124): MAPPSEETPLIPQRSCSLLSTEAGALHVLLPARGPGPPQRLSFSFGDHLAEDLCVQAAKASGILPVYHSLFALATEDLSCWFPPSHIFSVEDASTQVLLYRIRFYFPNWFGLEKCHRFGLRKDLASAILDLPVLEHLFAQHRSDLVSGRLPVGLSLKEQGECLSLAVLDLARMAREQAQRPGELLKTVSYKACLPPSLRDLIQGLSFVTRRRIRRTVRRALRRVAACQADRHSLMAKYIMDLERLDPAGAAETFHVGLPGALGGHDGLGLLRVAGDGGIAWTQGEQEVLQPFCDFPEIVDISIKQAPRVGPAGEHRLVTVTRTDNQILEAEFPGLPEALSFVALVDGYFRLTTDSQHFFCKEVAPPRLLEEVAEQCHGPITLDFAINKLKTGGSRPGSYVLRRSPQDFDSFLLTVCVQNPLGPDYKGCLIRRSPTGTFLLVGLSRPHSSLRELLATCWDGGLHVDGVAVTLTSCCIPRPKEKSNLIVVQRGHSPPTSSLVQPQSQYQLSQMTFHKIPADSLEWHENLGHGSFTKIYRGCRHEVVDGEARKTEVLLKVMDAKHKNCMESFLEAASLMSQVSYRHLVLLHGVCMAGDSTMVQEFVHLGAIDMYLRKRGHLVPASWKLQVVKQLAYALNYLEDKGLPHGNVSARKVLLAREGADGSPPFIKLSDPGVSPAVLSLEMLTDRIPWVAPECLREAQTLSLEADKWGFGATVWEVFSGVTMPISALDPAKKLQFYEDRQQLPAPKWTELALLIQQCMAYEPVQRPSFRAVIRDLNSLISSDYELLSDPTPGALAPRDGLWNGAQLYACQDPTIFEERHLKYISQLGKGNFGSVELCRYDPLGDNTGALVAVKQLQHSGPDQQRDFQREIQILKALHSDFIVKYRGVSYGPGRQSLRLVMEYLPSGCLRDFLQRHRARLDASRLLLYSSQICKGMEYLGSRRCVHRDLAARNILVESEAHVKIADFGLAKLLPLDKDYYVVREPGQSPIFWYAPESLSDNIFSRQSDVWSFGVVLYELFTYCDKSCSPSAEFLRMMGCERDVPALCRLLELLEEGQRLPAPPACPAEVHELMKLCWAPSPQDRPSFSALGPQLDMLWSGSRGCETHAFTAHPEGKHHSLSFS

T6 sequence (O60674 whole entry): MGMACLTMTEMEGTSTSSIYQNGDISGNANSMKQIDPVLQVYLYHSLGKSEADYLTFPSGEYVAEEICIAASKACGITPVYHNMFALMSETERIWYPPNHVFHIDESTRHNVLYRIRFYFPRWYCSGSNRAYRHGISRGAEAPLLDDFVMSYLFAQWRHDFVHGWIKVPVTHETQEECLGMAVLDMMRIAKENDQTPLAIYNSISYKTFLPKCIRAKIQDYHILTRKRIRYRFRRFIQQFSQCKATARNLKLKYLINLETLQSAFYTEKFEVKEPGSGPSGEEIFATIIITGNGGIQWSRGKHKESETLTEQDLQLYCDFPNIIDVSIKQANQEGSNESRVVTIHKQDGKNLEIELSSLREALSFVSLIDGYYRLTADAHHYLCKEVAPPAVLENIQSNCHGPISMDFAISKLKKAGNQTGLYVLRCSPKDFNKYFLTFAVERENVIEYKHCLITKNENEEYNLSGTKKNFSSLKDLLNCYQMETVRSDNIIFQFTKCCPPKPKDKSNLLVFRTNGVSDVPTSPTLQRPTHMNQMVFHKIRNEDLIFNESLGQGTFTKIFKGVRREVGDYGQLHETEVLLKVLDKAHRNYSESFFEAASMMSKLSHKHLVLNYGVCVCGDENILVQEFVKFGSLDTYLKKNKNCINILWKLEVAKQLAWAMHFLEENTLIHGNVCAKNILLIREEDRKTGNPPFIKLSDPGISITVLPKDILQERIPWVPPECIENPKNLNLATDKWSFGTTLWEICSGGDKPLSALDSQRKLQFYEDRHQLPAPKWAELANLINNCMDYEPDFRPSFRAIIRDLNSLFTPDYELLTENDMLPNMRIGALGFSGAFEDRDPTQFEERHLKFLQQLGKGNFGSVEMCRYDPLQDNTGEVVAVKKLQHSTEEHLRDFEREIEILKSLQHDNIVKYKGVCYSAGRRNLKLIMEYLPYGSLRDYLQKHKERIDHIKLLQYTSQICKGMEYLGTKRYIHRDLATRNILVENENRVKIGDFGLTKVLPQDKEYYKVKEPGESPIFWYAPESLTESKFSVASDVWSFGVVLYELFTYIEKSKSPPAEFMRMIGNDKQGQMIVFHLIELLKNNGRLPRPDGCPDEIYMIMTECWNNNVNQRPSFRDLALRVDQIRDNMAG
T8 sequence (Q15059 whole entry): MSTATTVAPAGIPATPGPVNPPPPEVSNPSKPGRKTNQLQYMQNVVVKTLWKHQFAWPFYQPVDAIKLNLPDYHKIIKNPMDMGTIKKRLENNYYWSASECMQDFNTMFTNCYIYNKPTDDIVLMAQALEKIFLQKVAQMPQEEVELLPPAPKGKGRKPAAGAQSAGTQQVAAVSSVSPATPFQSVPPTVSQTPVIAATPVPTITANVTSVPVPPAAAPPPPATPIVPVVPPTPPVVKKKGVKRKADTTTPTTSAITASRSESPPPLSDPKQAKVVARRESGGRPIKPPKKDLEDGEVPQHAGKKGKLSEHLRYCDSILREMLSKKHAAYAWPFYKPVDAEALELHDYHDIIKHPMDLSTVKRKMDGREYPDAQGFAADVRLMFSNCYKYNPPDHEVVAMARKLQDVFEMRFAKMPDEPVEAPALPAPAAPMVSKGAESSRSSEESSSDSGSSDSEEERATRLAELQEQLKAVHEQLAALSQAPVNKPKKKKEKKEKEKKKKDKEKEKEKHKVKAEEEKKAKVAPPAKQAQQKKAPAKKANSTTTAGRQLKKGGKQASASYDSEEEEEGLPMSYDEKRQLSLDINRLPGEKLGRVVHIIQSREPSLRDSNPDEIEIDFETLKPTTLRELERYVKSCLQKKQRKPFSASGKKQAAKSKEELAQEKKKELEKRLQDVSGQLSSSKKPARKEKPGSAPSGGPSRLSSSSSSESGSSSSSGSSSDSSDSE
T7 sequence (P25440 whole entry): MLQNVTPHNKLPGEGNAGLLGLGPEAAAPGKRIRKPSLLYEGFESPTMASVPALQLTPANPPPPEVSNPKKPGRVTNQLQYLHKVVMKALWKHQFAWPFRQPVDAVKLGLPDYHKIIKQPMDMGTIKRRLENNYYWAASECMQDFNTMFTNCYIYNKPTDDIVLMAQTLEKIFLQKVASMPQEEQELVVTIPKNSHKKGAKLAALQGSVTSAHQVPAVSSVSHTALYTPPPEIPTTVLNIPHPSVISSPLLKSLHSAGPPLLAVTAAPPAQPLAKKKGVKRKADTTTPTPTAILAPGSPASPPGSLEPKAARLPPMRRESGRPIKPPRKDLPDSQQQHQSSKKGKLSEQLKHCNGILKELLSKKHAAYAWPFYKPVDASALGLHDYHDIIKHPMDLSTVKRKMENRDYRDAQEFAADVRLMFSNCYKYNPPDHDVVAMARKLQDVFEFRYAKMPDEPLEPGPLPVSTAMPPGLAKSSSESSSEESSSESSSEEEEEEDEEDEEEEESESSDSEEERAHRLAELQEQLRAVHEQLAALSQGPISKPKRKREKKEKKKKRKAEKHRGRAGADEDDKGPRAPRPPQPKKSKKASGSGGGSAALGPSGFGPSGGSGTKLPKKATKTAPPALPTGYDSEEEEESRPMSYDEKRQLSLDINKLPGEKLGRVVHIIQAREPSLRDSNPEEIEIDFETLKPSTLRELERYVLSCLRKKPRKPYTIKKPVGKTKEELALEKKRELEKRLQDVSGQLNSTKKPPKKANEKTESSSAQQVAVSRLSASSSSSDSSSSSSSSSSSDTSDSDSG
T10 sequence (P23458 whole entry): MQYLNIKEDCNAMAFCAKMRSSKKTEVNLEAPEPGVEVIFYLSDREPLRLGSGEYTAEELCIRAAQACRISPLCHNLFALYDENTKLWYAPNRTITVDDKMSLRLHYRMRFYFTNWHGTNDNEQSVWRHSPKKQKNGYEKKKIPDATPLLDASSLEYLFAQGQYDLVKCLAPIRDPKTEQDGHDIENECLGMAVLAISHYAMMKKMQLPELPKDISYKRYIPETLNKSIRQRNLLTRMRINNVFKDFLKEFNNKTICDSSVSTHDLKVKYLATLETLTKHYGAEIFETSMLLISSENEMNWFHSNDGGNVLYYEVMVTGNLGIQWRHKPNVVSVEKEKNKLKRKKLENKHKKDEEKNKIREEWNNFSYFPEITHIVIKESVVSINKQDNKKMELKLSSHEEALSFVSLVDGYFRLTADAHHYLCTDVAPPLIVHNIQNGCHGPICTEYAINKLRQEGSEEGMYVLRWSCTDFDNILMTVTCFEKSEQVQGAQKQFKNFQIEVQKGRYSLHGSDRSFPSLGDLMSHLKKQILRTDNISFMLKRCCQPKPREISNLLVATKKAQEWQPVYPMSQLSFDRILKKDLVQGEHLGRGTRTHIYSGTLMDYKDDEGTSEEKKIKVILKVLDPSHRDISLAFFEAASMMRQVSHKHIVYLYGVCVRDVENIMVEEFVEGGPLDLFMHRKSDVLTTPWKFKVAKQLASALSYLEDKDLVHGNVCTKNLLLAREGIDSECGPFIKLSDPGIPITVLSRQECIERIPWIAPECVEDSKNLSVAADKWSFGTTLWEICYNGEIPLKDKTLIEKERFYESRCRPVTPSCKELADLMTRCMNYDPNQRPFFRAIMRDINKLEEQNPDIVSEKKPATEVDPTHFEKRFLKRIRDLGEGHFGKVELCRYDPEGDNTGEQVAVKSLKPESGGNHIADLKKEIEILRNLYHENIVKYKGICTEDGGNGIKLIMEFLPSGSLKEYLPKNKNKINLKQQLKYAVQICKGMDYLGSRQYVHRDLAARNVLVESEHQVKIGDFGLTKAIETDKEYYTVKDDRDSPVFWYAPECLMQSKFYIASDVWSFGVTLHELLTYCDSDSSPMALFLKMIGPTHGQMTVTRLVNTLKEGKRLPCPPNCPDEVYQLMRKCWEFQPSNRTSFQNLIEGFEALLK

SMILES	ΔTm at 4 µM [1] [°C]	IC50 [1]	IC50 [2] [nM]	IC50 [3] [nM]	IC50 [4] [nM]	IC50 [5] [nM]	IC50 [6] [nM]	IC50 [7] [nM]	IC50 [8] [nM]	IC50 [10] [nM]	IC50 [12] [nM]	Precipitation in DSF buffer [13]	IC50 [15] [nM]	IC50 [16] [nM]	IC50 ([17]; read-out: BRD4 IC50) [nM]	IC50 [18] [nM]	other results
Cc1cnc(Nc2ccc(N3CCN(C)CC3)c(F)c2)nc1Nc1ccc(Cl)c(NS(=O)(=O)C(C)(C)C)c1	11 ± 0.04	4.8 nM and 1.3 nM	59	53.2	320	294	2500	10.7	11.2	19							IC50 [9]: 17.5 nM
Cc1cnc(Nc2ccc(N3CCN(C)CC3)cc2)nc1Nc1ccc(Cl)c(NS(=O)(=O)C(C)(C)C)c1 [SG3-014B2.MSA]																	Solubility ([11]; PBS buffer (15% HPCD)): Solubility > 14.4 mg mg in 1 mL; Solubility ([11]; PBS buffer (~9.3% DMSO)): DMSO) = 0.416 mg mg in 1 mL; Solubility ([11]; aqueous with cosolvent or surfactant or cyclodextrin, PBS buffer (~9.3% DMSO), read-out: Solubility): 650 µM (≈ 354 µg/mL)
Cc1cnc(Nc2ccc(N3CCN(C)CC3)c(F)c2)nc1Nc1cccc(NS(=O)(=O)C(C)(C)C)c1	9.5 ± 0.14	14 nM and 3.9 nM	160	26.8	133	200	1400	1.1	24.3	41.3	1.14						IC50 [9]: 22 nM
CN1CCN(c2ccc(Nc3ncc(F)c(Nc4ccc(Cl)c(NS(=O)(=O)C(C)(C)C)c4)n3)cc2F)CC1	0.57 ± 0.124	16800 nM	160									Precipitation observed in DSF buffer					
COc1cc(Nc2nc(Nc3ccc(N4CCN(C)CC4)cc3)ncc2C)ccc1Cl	5.6 ± 0.082	290 nM	420								0.69		2800	1140	617	1400	IC50 [14]: 380 nM; IC50 ([17]; read-out: BRD4 IC50 (RB)): 617 nM; IC50 [19]: 1.83 nM; IC50 [20]: 9.06 nM
Cc1cnc(Nc2ccc(C(=O)NC3CCN(C)CC3)c(F)c2)nc1Nc1ccc(Cl)c(NS(=O)(=O)C(C)(C)C)c1	12.5 ± 0.165	1.3 nM		38		220	> 10000		10	23							
Cc1cnc(Nc2ccc(N3CCN(C)CC3)cc2)nc1Nc1ccc(Cl)c(NS(=O)(=O)C(C)(C)C)c1 [drawing 109]	9.57 ± 0.086	10 nM	74	186	567	512		9.71			11.2		81.4	16.5	4.04	27.8	
Cc1cnc(Nc2ccc(N3CCN(C)CC3)cc2)nc1Nc1cccc(NS(=O)(=O)C(C)(C)C)c1	8.54 ± 0.088	25 nM	400		184	260		0.917					625	12.5	10.2	29.1	IC50 [14]: 1200 nM; IC50 [19]: 4.58 nM; IC50 [20]: 91.4 nM
CN1CCN(c2ccc(Nc3ncc(Cl)c(Nc4ccc(Cl)c(NS(=O)(=O)C(C)(C)C)c4)n3)cc2F)CC1	5.22 ± 0.065	835 nM	110									Precipitation observed in DSF buffer					
Cc1cnc(Nc2ccc(N3CCN(C)CC3)c(C(F)(F)F)c2)nc1Nc1ccc(Cl)c(NS(=O)(=O)C(C)(C)C)c1	2.46 ± 0.111	4950 nM										Precipitation interferes with the assay					
